{
  "source": "patent US4081433A",
  "about": "“D-Nle^4 -somatostatin and analogues thereof” (American Home Products Corporation, priority 1977, dated 1978)",
  "test_system": "growth hormone",
  "assay": "Arginine-stimulated growth hormone secretion in Nembutal-anaesthetised rats",
  "assay_type": "in vivo",
  "conditions": "albino male rats, 1 mg/kg subcutaneous",
  "experimental": "The activity of the product of the preceding preparatory example, (D-Nle^4)Somatostatin, was determined by the following procedure:\nAlbino male rats were administered Nembutal intraperitoneally at a dose of 50 milligrams per kilogram. Fifteen minutes later a subcutaneous injection of the test compound or physiological saline was administered. Ten minutes later 0.5 milliliters of arginine (300 millligrams per milliliter, pH 7.2) is injected into the heart. Five minutes after receipt of the arginine the rats are decapitated and blood is collected into trasylol-EDTA.",
  "note": "Bridge positions count the residues as written; N and C are the ends. Square brackets hold non-standard residues; d marks the D form. Peptide text beside a SMILES is read from it. dNle = CCCC[C@@H](N)C(=O)O",
  "data": [
    {"smiles": "CCCC[C@H]1NC(=O)[C@@H](NC(=O)CNC(=O)[C@H](C)N)CSSC[C@@H](C(=O)O)NC(=O)[C@H](CO)NC(=O)[C@H]([C@@H](C)O)NC(=O)[C@H](Cc2ccccc2)NC(=O)[C@H]([C@@H](C)O)NC(=O)[C@H](CCCCN)NC(=O)[C@H](Cc2c[nH]c3ccccc23)NC(=O)[C@H](Cc2ccccc2)NC(=O)[C@H](Cc2ccccc2)NC(=O)[C@H](CC(N)=O)NC1=O", "note": "[(D-Nle^4)Somatostatin, L-Alanyl-glycyl-L-cysteinyl-D-norleucyl-L-asparaginyl-L-phenylalanyl-L-phenylalanyl-L-tryptophyl-L-lysyl-L-threonyl-L-phenylalanyl-L-threonyl-L-seryl- L-cysteine cyclic (1.revreaction.14) disulfide] (H-AGC[dNle]NFFWKTFTSC-OH; disulfide 3-14)", "values": [
      {"measurement": "reducing secretion of growth hormone (in words)", "value": "effective agent for reducing secretion of growth hormone"},
      {"measurement": "growth hormone in blood", "setting": "arginine injected 10 min later, blood 5 min after arginine, control 208±52 ng/ml, p<0.05", "value": "83 ± 23", "unit": "ng/mL"}
    ]}
  ]
}
